Read-outs that look alike come from different tables or passages of the source.
Columns and labels:
DENV-1 strain TC974#666 = assay: Tetravalent RT-qPCR assay, serotype 1; format: cell-based, Dengue virus; details: RT-qPCR serotype 1 TC974#666, Protocol A, Vero cells, day 3
Description: (§1) Tetravalent reverse transcriptase quantitative-PCR (RT-qPCR) assay The antiviral activity of the compounds of the invention was tested against DENV-1 strain TC974#666 (NCPV), DENV-2 strain 16681, DENV-3 strain H87 (NCPV) and DENV-4 strain H241 (NCPV) in a RT-qPCR assay. Therefore, Vero cells were infected with either DENV-1, or -2, or -3, or -4 in the presence or absence of test compounds. At day 3 post-infection, the cells were lysed and cell lysates were used to prepare cDNA of both a viral target (the 3′UTR of DENV; Table 2) and a cellular reference gene (β-actin, Table 2). Subsequently, a duplex real time PCR was performed on a Lightcycler480 instrument. The generated Cp value is inversely proportional to the amount of RNA expression of these targets. Inhibition of DENV replication by a test compound results in a shift of Cp's for the 3′UTR gene. On the other hand, if a test compound is toxic to the cells, a similar effect on β-actin expression will be observed. The comparative ΔΔCp method is used to calculate EC50, which is based on the relative gene expression of the target gene (3′UTR) normalized with the cellular housekeeping gene (β-actin). In addition, CC50 values are determined based on the Cp values acquired for the housekeeping gene β-actin.
(§2) The culture medium consisted of minimal essential medium supplemented with 2% of heat-inactivated fetal calf serum, 0.04% gentamycin (50mg/mL) and 2 mM of L-glutamine. Vero cells, obtained from ECACC, were suspended in culture medium and 75 μL/well was added in 96-well plates (10000 cells/well), which already contain the antiviral compounds. […] In addition, each plate contains wells which are assigned as virus controls (containing cells and virus in the absence of compound) and cell controls (containing cells in the absence of virus and compound). Once the cells were added in the plates, the plates were incubated in a fully humidified incubator (37° C., 5% CO2) until the next day. Dengue viruses serotype-1, 2, 3 and 4 were diluted in order to obtain a Cp of ˜22-24 in the assay. Therefore, 25 μL of virus suspension was added to all the wells containing test compound and to the wells assigned as virus control. In parallel, 25 μL of culture medium was added to the cell controls. Next, the plates were incubated for 3 days in a fully humidified incubator (37° C., 5% CO2). After 3 days, the supernatant was removed from the wells and the cells were washed twice with ice-cold PBS (˜100 μL). The cell pellets within the 96-well plates were stored at −80° C. for at least 1 day. Next, RNA was extracted using the Cells-to-CT™ lysis kit, according to the manufacturer's guideline (Life Technologies). The cell lysates can be stored at −80° C. or immediately used in the reverse transcription step.
(§3) In preparation of the reverse transcription step, mix A (table 3A) was prepared and 7.57 μL/well was dispensed in a 96-well plate. After addition of 5 μL of the cell lysates, a five minute denaturation step at 75° C. was performed (table 3B). Afterwards, 7.43 μL of mix B was added (table 3C) and the reverse transcription step was initiated (table 3D) to generate cDNA.
(§4) Finally, a RT-qPCR mix was prepared, mix C (table 4A), and 22.02 μL/well was dispensed in 96-well LightCycler qPCR plates to which 3μL of cDNA was added and the qPCR was performed according to the conditions in table 4B on a LightCycler 480.
(§5) Using the LightCycler software and an in-house LIMS system, dose response curves for each compound were calculated and the half maximal effective concentration (EC50) and the half maximal cytotoxic concentration (CC50) were determined (Tables 5-8).

DENV-2 strain 16681 = assay: Tetravalent RT-qPCR assay, serotype 2; format: cell-based, Dengue virus; details: RT-qPCR serotype 2 16681, Protocol A, Vero cells, day 3
Description: as §1, §2, §3, §4, §5

DENV-4 strain H241 = assay: Tetravalent RT-qPCR assay, serotype 4; format: cell-based, Dengue virus; details: RT-qPCR serotype 4 H241, Protocol A, Vero cells, day 3, read-out: EC50
Description: as §1, §2, §3, §4, §5

DENV-3 strain H87 = assay: Tetravalent RT-qPCR assay, serotype 3; format: cell-based, Dengue virus; details: RT-qPCR serotype 3 H87, Protocol A, Vero cells, day 3
Description: as §1, §2, §3, §4, §5

Vero cells = details: African green monkey
DENV-2 16681 strain = assay: DENV-2 antiviral assay (eGFP-labeled virus in Vero cells); format: cell-based, Dengue virus; details: DENV-2 16681 eGFP, MOI 0.5, 3 days
Description: The antiviral activity of all the compounds of the invention was tested the against DENV-2 16681 strain which was labeled with enhanced green fluorescent protein (eGPF). The culture medium consists of minimal essential medium supplemented with 2% of heat-inactivated fetal calf serum, 0.04% gentamycin (50 mg/mL) and 2 mM of L-glutamine. Vero cells, obtained from ECACC, were suspended in culture medium and 25 μL was added to 384-well plates (2500 cells/well), which already contain the antiviral compounds. Typically, these plates contain a 5-fold serial dilution of 9 dilution steps of the test compound at 200 times the final concentration in 100% DMSO (200 nL). […] Finally, each plate contains wells which are assigned as virus controls (containing cells and virus in the absence of compound), cell controls (containing cells in the absence of virus and compound) and medium controls (containing medium in the absence of cells, virus and compounds). To the wells assigned as medium control, 25 μL of culture medium was added instead of Vero cells. Once the cells were added to the plates, the plates were incubated for 30 minutes at room temperature to allow the cells to distribute evenly within the wells. Next, the plates were incubated in a fully humidified incubator (37° C., 5% CO2) until the next day. Then, DENV-2 strain 16681, labeled with eGFP, was added at a multiplicity of infection (MOI) of 0.5. Therefore, 15 μL of virus suspension was added to all the wells containing test compound and to the wells assigned as virus control. In parallel, 15 μL of culture medium was added to the medium and cell controls. Next, the plates were incubated for 3 days in a fully humidified incubator (37° C., 5% CO2). At the day of the read out, the eGFP fluorescence was measured using an automated fluorescence microscope at 488 nm (blue laser). Using an in-house LIMS system, inhibition dose response curves for each compound were calculated and the half maximal effective concentration (EC50) was determined. Therefore, the percent inhibition (I) for every test concentration is calculated using the following formula: I=100*(ST-SCC)/(SVC-SCC), ST, SCC and SVC are the amount of eGFP signal in the test compound, cell control and virus control wells, respectively. The EC50 represents the concentration of a compound at which the virus replication is inhibited with 50%, as measured by a 50% reduction of the eGFP fluorescent intensity compared to the virus control. The EC50 is calculated using linear interpolation (Table 1).

in vitro = details: African green monkey
[1] = Dengue virus, DENV1, Vero, 72 h
[2] = Dengue virus, DENV2, Vero, 72 h
[3] = Dengue virus, DENV4, Vero, 72 h
[4] = Dengue virus, DENV3, Vero, 72 h

| SMILES | EC50 (DENV-1 strain TC974#666; [1]) [nM] | EC50 (DENV-2 strain 16681; [2]) [nM] | EC50 (DENV-4 strain H241; [3]) [nM] | EC50 (DENV-3 strain H87; [4]) [nM] | CC50 (Vero cells) [nM] | EC50 (DENV-2 16681 strain) [nM] | melting point [°C] | CC50 (in vitro) [nM] | EC50 (DENV-2 16681 strain; [2]) [nM] | EC50 (DENV-1 strain TC974#666) [nM] | EC50 (DENV-2 strain 16681) [nM] | EC50 (DENV-4 strain H241) [nM] | EC50 (DENV-3 strain H87) [nM] |
| --- | --- | --- | --- | --- | --- | --- | --- | --- | --- | --- | --- | --- | --- |
| COc1cc(NC(C(=O)N2CCc3c(C)cc(OC(F)(F)F)cc32)c2ccc(Cl)cc2)cc(OCCO)c1 (single isomer, unassigned) [Compound 9B, 2-(4-chlorophenyl)-2-((3-(2-hydroxyethoxy)-5-methoxy-phenyl)amino)-1-(4-methyl-6-(trifluoromethoxy)indolin-1-yl)ethanone] | 2.7 | 1.2 | 110 | 16 | 11000 | 1.4 |  |  |  |  |  |  |  |
| COc1cc(NC(C(=O)N2CCc3c(C)cc(C(F)(F)F)cc32)c2ccc(Cl)cc2)cc(OCCO)c1 (single isomer, unassigned) [Compound 10B, 2-(4-chlorophenyl)-2-((3-(2-hydroxyethoxy)-5-methoxy-phenyl)amino)-1-(4-methyl-6-(trifluoromethyl)indolin-1-yl)ethanone] | 1.7 | 2.3 | 160 | 16 | 11000 | 2.2 |  |  |  |  |  |  |  |
| COc1cc(NC(C(=O)N2CCc3ccc(OC(F)(F)F)cc32)c2ccc(Cl)cc2OC)cc(OCCO)c1 (racemic) [Compound 5, 2-(4-chloro-2-methoxyphenyl)-2-((3-(2-hydroxyethoxy)-5-methoxyphenyl)amino)-1-(6-(trifluoromethoxy)indolin-1-yl)ethanone] |  |  |  |  |  |  | 162 | 9300 | 4.6 |  |  |  |  |
| COc1cc(NC(C(=O)N2CCc3ccc(C(F)(F)F)cc32)c2ccc(Cl)cc2OC)cc(OCCO)c1 (single isomer, unassigned) [Compound 1B, 2-(4-chloro-2-methoxyphenyl)-2-((3-(2-hydroxyethoxy)-5-methoxyphenyl)amino)-1-(6-(trifluoromethyl)indolin-1-yl)ethanone] | 4.4 | 3.6 | 250 | 56 | 12000 | 3.6 |  |  |  |  |  |  |  |
| COc1cc(NC(C(=O)N2CCc3cc(OC)c(C(F)(F)F)cc32)c2ccc(Cl)cc2OC)cc(OCCO)c1 (single isomer, unassigned) [Compound 11B, 2-(4-chloro-2-methoxyphenyl)-2-((3-(2-hydroxyethoxy)-5-methoxyphenyl)amino)-1-(5-methoxy-6-(trifluoromethyl)indolin-1-yl)ethanone] | 7.8 | 2 | 280 | 34 | > 25000 | 1.6 |  |  |  |  |  |  |  |
| COc1cc(NC(C(=O)N2CCc3cc(F)c(C(F)(F)F)cc32)c2ccc(Cl)cc2)cc(OCCO)c1 (single isomer, unassigned) [Compound 12A, 2-(4-chlorophenyl)-1-(5-fluoro-6-(trifluoromethyl)indolin-1-yl)-2-((3-(2-hydroxyethoxy)-5-methoxyphenyl)amino)ethanone] | 3.3 | 4.4 | 240 | 40 |  | 2.3 |  | 12000 |  |  |  |  |  |
| COc1cc(NC(C(=O)N2CCc3ccc(C(F)(F)F)cc32)c2ccc(Cl)cc2)cc(OCCO)c1 (single isomer, unassigned) [Compound 4B, 2-(4-chlorophenyl)-2-((3-(2-hydroxyethoxy)-5-methoxyphenyl)amino)-1-(6-(trifluoromethyl)indolin-1-yl)ethanone] |  |  |  |  | 14000 | 1100 |  |  |  | 700 | 1000 | > 2500 | > 1900 |
| COc1cc(NC(C(=O)N2CCc3ccc(OC(F)(F)F)cc32)c2ccc(Cl)cc2)cc(OCCO)c1 (single isomer, unassigned) [Compound 3A, 2-(4-chlorophenyl)-2-((3-(2-hydroxyethoxy)-5-methoxyphenyl)amino)-1-(6-(trifluoromethoxy)indolin-1-yl)ethanone] | 3.6 | 2.2 | 190 | 29 |  | 2.3 |  | 9600 |  |  |  |  |  |
| COc1cc(NC(C(=O)N2CCc3cc(OC)c(C(F)(F)F)cc32)c2ccc(Cl)cc2F)cc(OCCO)c1 (single isomer, unassigned) [Compound 8B, 2-(4-chloro-2-fluorophenyl)-2-((3-(2-hydroxyethoxy)-5-methoxyphenyl)amino)-1-(5-methoxy-6-(trifluoromethyl)indolin-1-yl)ethanone] | 8.1 | 2.3 | 120 | 50 | ≥ 76000 | 1.9 |  |  |  |  |  |  |  |
| COc1cc(NC(C(=O)N2CCc3ccc(C(F)(F)F)cc32)c2ccc(Cl)cc2)cc(OCCO)c1 (single isomer, unassigned) [Compound 4A, 2-(4-chlorophenyl)-2-((3-(2-hydroxyethoxy)-5-methoxyphenyl)amino)-1-(6-(trifluoromethyl)indolin-1-yl)ethanone] |  |  |  |  |  | 3.6 |  | 12000 |  | 3.9 | 4.3 | 210 | 27 |

Reference: patent US20200339511A1, “Substituted indoline derivatives as dengue viral replication inhibitors” (priority 2016, published 2020)
